Values joined by “and” are separate entries in the source; they are usually repeats but may differ in a detail not shown here. Equal entries are not always repeated.
Tested on: passively transferred EAE
Experiment: Passively transferred experimental autoimmune encephalomyelitis (EAE)
Format: in vivo, Lewis rats
Conditions: for Clinical Scores (individual rats): 45 mg/kg/day by mini-osmotic pump; for Clinical Scores (individual rats) / Mean Score: scale 0 to 5
Method: To study the effect of the present agents in vivo on a disease that includes in its pathogenesis the migration of T lymphocytes into a specific tissue, the brain, experiments were performed in the Lewis rat model of passively transferred EAE. MBP-specific T lymphocyte cell lines were generated from the draining LNs of Lewis rats that had been immunized with MBP in CFA essentially according to the method of Ben-Nun et al., 1981, supra. Donor T lymphocytes were generated from female 10 to 12 week old Lewis rats weighing 150 to 200 g. These rats had been injected intradermally in each hind footpad with an emulsion of guinea pig MBP (gpMBP) prepared according to Deibler, G E et al., […]. Biochem. 2:139-165 (1972), incorporated herein by reference) in CFA ([…]). The adjuvant emulsion was prepared by emulsifying equal volumes of a mixture of light mineral oil (Sigma) and a solution of the gpMBP in normal saline (0.5 mg/ml) and Mycobacterium butyricum (4 mg/ml; Difco). Thus, each rat received was 50 μg of MBP and 400 μg of M. butyricum. Approximately 11 days following injection the rats were euthanized and the draining LNs (popliteal and inguinal) were removed aseptically by blunt dissection and placed into lymphocyte culture medium as described above. A single cell suspension was prepared from the LNs as described above for spleen. The cells were washed twice in culture medium and any red blood cells were lysed with ammonium chloride as above. These cells, at concentration of 5×10^6/ml were cultured for 72 hours in the presence of MBP (0.06 mg/ml) at 37° C. in a humidified atmosphere containing 7.5% carbon dioxide. The cells were collected and the lymphoblasts were isolated by centrifugation on a Ficoll (Pharmacia, Uppsala, Sweden) gradient in an identical manner to that described by Ben Nun et al. supra. The fraction containing 90% lymphoblasts was cultured further in complete DMEM to which was added (15% v/v) a culture supernatant containing a mixture of growth factors (supernatant of concanavalin A-stimulated lymphocytes), 10% fetal calf serum, nonessential amino acids (Bio-Lab, Jerusalem, Israel). No antigen (MBP) was added. The cells were originally plated in 100 mm petri dishes at a concentration of 2×10^5 cells/mil and replated every 3 or 4 days. Prior to transfer into Lewis rat recipients, the cells were restimulated with antigen, MBP (0.01 mg/ml), and irradiated syngeneic thymocytes, as antigen-presenting cells, for 4 days. These cultured, stimulated T lymphocytes were highly encephalitogenic: as few as 5×10^5 cells could induced disease in naïve Lewis rats. In a typical experiment, a group of 5 female Lewis rats, approximately 9 weeks old, weighing 110±15 grams was anesthetized with diethyl ether and implanted with mini-osmotic pumps (Alzet 2002, Alza Corp., Palo Alto Calif., USA) containing 1-(2,4,-diimethyl phenyl)-6-phosphono-mannoside dissolved in normal saline at a concentration that delivered the drug at a rate of 45 mg/kg/day. A second group of 5 control animals were implanted under anesthesia with a similar pump containing normal saline. Just prior to recovering from the anesthetic, each animal received 5×10^5 cells of the above encephalitogenic T cell line iv in 0.2 ml of normal saline. […] The severity of EAE for each group of rats was calculated as a Disease Index (DI) which is (for those animals developing disease): [formula] This calculation allows a more complete assessment of the disease by incorporating both speed of onset and clinical severity and duration of the disease. […] In an identically designed experiment, rats were sacrificed on day 6 after T lymphocyte transfer and their spinal cords were harvested for histological assessment. Rats were deeply anesthetized (Nembutal) and perfused with 30 ml saline followed by 60 ml 10% neutral buffered formalin. Spinal cords were removed, fixed for 7 days in 10% formalin and embedded for sectioning. […]

[1] = 45 mg/kg/day, vs saline controls

What does the source list for `Cc1ccc(O[C@H]2O[C@H](CCP(=O)(O)O)[C@@H](O)[C@H](O)[C@@H]2O)c(C)c1`?
animals that developed disease (45 mg/kg/day, control 5/5): 3/5; DI = Group Disease Index (45 mg/kg/day, control group DI 160): 40; duration of maximum clinical scores (45 mg/kg/day, controls two consecutive days): none of the 3 drug treated animals that developed symptoms had maximum clinical scores for more than one day; disease onset [1]: disease onset was delayed; disease severity [1]: disease severity was lower than that observed in the controls; Clinical Scores (individual rats) (Day 4): 0; Mean Score (Day 4, 45 mg/kg/day): 0; Clinical Scores (individual rats) (Day 5, listed as 1-(2,4,-dimethyl phenyl)-6-phosphono-mannoside, 45 mg/kg/day): 1 (3×) and 0 (2×); Mean Score (Day 5, 45 mg/kg/day): 0.6; Clinical Scores (individual rats) (Day 6, listed as 1-(2,4,-dimethyl phenyl)-6-phosphono-mannoside, 45 mg/kg/day): 2 (2×) and 0 (2×) and 1; Mean Score (Day 6, 45 mg/kg/day): 1; Clinical Scores (individual rats) (Day 7, listed as 1-(2,4,-dimethyl phenyl)-6-phosphono-mannoside, 45 mg/kg/day): 0 (3×) and 1 (2×); Mean Score (Day 7, 45 mg/kg/day): 0.4; lesions/section in the most affected animal (day 6 after T lymphocyte transfer, histology): no more than 8 lesions/section; average number of spinal cord lesions (day 6 after T lymphocyte transfer, histology, control approximately 15 lesions/section): 3.5 lesions

— patent US7648966B2, “Mannose-6-phosphonate compounds for the treatment of inflammatory diseases” (Pharmaxis Pty Limited, priority 2003, dated 2010)
